Data as given in article PMC4850295, “Using a Genetically Encoded Sensor to Identify Inhibitors of Toxoplasma gondii Ca^2+ Signaling” (The Journal of Biological Chemistry, 2016).
“And” between values parts separate entries of the source, which are not always exact repeats. Identical values can stand only once.

Tested on: T1, GCaMP5-expressing T. gondii
T1 construct: whole extracellular parasites expressing GCaMP5 Ca2+ sensor
Set-up: species or system GCaMP5-expressing Toxoplasma gondii, extracellular; GCaMP5 fluorescence (cytosolic Ca2+) after 100 uM zaprinast in compound-pretreated extracellular parasites, background-subtracted, relative to zaprinast alone
Settings: 100 uM zaprinast stimulation, 10 min pretreatment, mean of two replicates, 0.23 h, 10 µM
How it was run: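 Read-out is GCaMP5 calcium fluorescence (ex 485/em 525 nm) taken 4 min after 100 μM zaprinast at 37 °C, following 10 min compound pretreatment at 10 μM in duplicate biological replicates. Values are basal-subtracted fold change versus zaprinast-only controls; parasites held extracellular in Ringer's solution.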

In the case of `COC(=O)Nc1nc2cc(Oc3cccc(NC(=O)Nc4cc(C(F)(F)F)ccc4F)c3)ccc2[nH]1` [GW659386A], the “fold change in fluorescence relative to zaprinast alone” value is reported as 1.116 and 1.187.

Same assay, conditions: 100 uM zaprinast stimulation; 10 min pretreatment; mean of two replicates; 0.23 h

First: Cc1nnc(-c2ccc(C)c(-c3ccc(C(=O)Nc4cccc(C#N)c4)cc3)c2)o1 [GW607117X]
Second: Cc1nnc(-c2ccc(C)c(-c3ccc(C(=O)O)cc3)c2)o1 [GW608005X]
The “fold change in fluorescence relative to zaprinast alone” value of the first is lower: 1.107 for the first, 1.249 for the second.

Going from `COc1cc(Nc2nccc(Nc3ccc4c(C)n[nH]c4c3)n2)cc(OC)c1OC` [GW612286X] to `COc1cc(Nc2ncc(-c3ccccc3)o2)cc(OC)c1OC` [GW627512B], the “fold change in fluorescence relative to zaprinast alone” value rises from 0.875 to 0.9208.

First: O=S(=O)(CCOCc1ccc(-c2ccc3ncnc(Nc4ccc(OCc5cccc(F)c5)c(Cl)c4)c3c2)o1)c1ccccc1 [GW615311X]
Second: O=S(=O)(CCNCc1ccc(-c2ccc3ncnc(Nc4ccc(OCc5cccc(F)c5)c(Cl)c4)c3c2)o1)c1ccccc1 [GW633459A]
The “fold change in fluorescence relative to zaprinast alone” value of the first is higher: 1.258 for the first, 1.016 for the second.

First: CS(=O)(=O)CCN(CC#N)Cc1ccc(-c2ccc3ncnc(Nc4ccc(OCc5cccc(F)c5)c(Cl)c4)c3c2)o1 [GW616030X]
Second: CCCN(CCS(C)(=O)=O)Cc1ccc(-c2ccc3ncnc(Nc4ccc(OCc5cccc(F)c5)c(Cl)c4)c3c2)o1 [GW621823A]
The “fold change in fluorescence relative to zaprinast alone” value of the first is higher: 1.169 for the first, 0.6108 for the second.

Going from `CCS(=O)(=O)c1ccc(OC)c(Nc2ncc(-c3cccc(C(C)=O)c3)o2)c1` [GW621431X] to `CCS(=O)(=O)c1ccc(OC)c(Nc2ncc(-c3cccc(-c4ccccc4F)c3)o2)c1` [GW678313X], the “fold change in fluorescence relative to zaprinast alone” value falls from 1.216 to 1.071.

Compared with `CN1CCN(CCCNc2nccc(-c3c(-c4ccc(F)cc4)nn4cc(C(F)(F)F)ccc34)n2)CC1` [GW621581X], `CN1CCN(CCCNc2nccc(-c3c(-c4ccc(F)cc4)nn4cc(C(N)=O)ccc34)n2)CC1` [GW622475X] is lower in “fold change in fluorescence relative to zaprinast alone” value: 0.8628 for the first, 0.5684 for the second.

Going from `OCCCNc1nccc(-c2c(-c3cccc(C(F)(F)F)c3)nn3cc(C(F)(F)F)ccc23)n1` [GW630813X] to `CCCCc1nn2ncccc2c1-c1ccnc(Nc2ccc(N3CCN(C)CC3)cc2)n1` [GW684941X], the “fold change in fluorescence relative to zaprinast alone” value falls from 1.109 to 0.4893.

First: Cc1cccc(Nc2ncc(-c3ccccc3)o2)c1 [GW632046X]
Second: Cc1cccc(-c2cc(-c3cn[nH]c3-c3ccccn3)ccn2)c1 [GW679395X]
The “fold change in fluorescence relative to zaprinast alone” value of the first is higher: 1.202 for the first, 0.9312 for the second.

Going from `COc1ccc(COc2ccc(Cc3cnc(N)nc3N)cc2OC)cc1` [GW632580X] to `COc1ccc(-c2cc3c(N)ncnc3o2)cc1` [GW642138X], the “fold change in fluorescence relative to zaprinast alone” value falls from 1.155 to 1.142.

Compared with `CC(C)S(=O)(=O)N1CCN(Cc2ccc3c(c2)nc(NC(=O)c2ccsc2)n3C[C@H](O)c2ccccc2)CC1` [GW635815X], `O=C(NCCCN1CCOCC1)c1cccc(Nc2nccc(Nc3ccc(Oc4ccccc4)cc3)n2)c1` [GW663929X] is higher in “fold change in fluorescence relative to zaprinast alone” value: 1.196 for the first, 1.429 for the second.

Compared with `N#CCc1ccc(Nc2nccc(Nc3ccc(Oc4ccccc4)cc3)n2)cc1` [GW639905A], `N#Cc1cnc2cc(-c3cnc(CNCCN4CCOCC4)s3)ccc2c1Nc1ccc(Oc2ccccc2)cc1` [GW664114X] is higher in “fold change in fluorescence relative to zaprinast alone” value: 1.192 for the first, 1.528 for the second.

First: COc1cc(C=NNc2ncnc3c2cnn3Cc2ccccc2)ccc1O [GW643971X]
Second: Fc1cccc(COc2ccc(Nc3ncncc3C#Cc3ccccc3)cc2Cl)c1 [GW651576X]
The “fold change in fluorescence relative to zaprinast alone” value of the first is lower: 1.09 for the first, 1.149 for the second.

Going from `COC(=O)Nc1nc2ccc(Oc3ccc(NC(=O)Nc4cc(C(F)(F)F)ccc4F)cc3)cc2[nH]1` [GW654607A] to `COC(=O)Nc1nc2ccc(Oc3ccc(CC(=O)Nc4cc(C(F)(F)F)ccc4F)cc3)cc2[nH]1` [GW680903X], the “fold change in fluorescence relative to zaprinast alone” value rises from 1.325 to 1.756.

Going from `NC(=O)c1cccc(Nc2nccc(Nc3ccc(Oc4c(Cl)cccc4Cl)c(Cl)c3)n2)c1` [GW659009A] to `Cc1[nH]nc2cc(Nc3ccnc(Nc4cccc(CN5CCOCC5)c4)n3)ccc12` [GW682569X], the “fold change in fluorescence relative to zaprinast alone” value rises from 1.248 to 1.452.

Compared with `Nc1ccc(C#Cc2cncnc2Nc2ccc(OCc3cccc(F)c3)c(Cl)c2)cc1` [GW659893X], `Fc1cccc(COc2ccc(Nc3ncnc4sc(-c5cccs5)cc34)cc2Cl)c1` [GW684626B] is higher in “fold change in fluorescence relative to zaprinast alone” value: 0.972 for the first, 0.9792 for the second.

First: CCc1cccc(NC(=O)Nc2ccc(Oc3ccc4nc(NC(=O)OC)[nH]c4c3)cc2)c1 [GW673715X]
Second: COC(=O)Nc1nc2cc(Oc3ccc(NC(=O)Nc4cccc(Br)c4)cc3)ccc2[nH]1 [GW694234A]
The “fold change in fluorescence relative to zaprinast alone” value of the first is higher: 1.098 for the first, 0.8976 for the second.

First: FC(F)(F)c1ccccc1-c1cc(-c2cn[nH]c2-c2ccccn2)ccn1 [GW679396X]
Second: Cc1ccccc1-c1cc(-c2cn[nH]c2-c2ccccn2)ccn1 [GW680061X]
The “fold change in fluorescence relative to zaprinast alone” value of the first is higher: 0.8259 for the first, 0.8106 for the second.

First: C#Cc1cccc(Nc2ncnc3ccc(OCCCCNCCS(C)(=O)=O)cc23)c1 [GW680191X]
Second: COC(=O)Nc1nc2ccc(Oc3ccc(NC(=O)Nc4cc(C(F)(F)F)ccc4F)cn3)cc2[nH]1 [GW681170A]
The “fold change in fluorescence relative to zaprinast alone” value of the first is lower: 1.038 for the first, 1.637 for the second.

Compared with `COc1cccc(-c2cc(-c3cn[nH]c3-c3ccccn3)ccn2)c1` [GW680338X], `Clc1ccc(-c2cc(-c3cn[nH]c3-c3ccccn3)ccn2)cc1` [GW681251X] is higher in “fold change in fluorescence relative to zaprinast alone” value: 0.8974 for the first, 1.448 for the second.

Compared with `COC(=O)Nc1nc2ccc(S(=O)(=O)c3ccc(NC(=O)Nc4cc(C(F)(F)F)ccc4F)cc3)cc2[nH]1` [GW680908A], `COC(=O)Nc1nc2ccc(Oc3ccc(NC(=O)Nc4cc(C(F)(F)F)ccc4F)cc3)cc2n1C` [GW692089A] is higher in “fold change in fluorescence relative to zaprinast alone” value: 1.018 for the first, 1.505 for the second.

Going from `Fc1ccc(-c2cc(-c3c[nH]nc3-c3ccccn3)ccn2)cc1` [GW680975X] to `CC(C)c1ccc(-c2cc(-c3c[nH]nc3-c3ccccn3)ccn2)cc1` [GW682841X], the “fold change in fluorescence relative to zaprinast alone” value rises from 1.061 to 1.973.

First: O=C(Nc1ccc(Oc2ccc3[nH]c(NC(=O)c4ccco4)nc3c2)cc1)Nc1cc(C(F)(F)F)ccc1F [GW683134A]
Second: N#Cc1ccc(-c2cc(-c3cn[nH]c3-c3ccccn3)ccn2)cc1 [GW693028X]
The “fold change in fluorescence relative to zaprinast alone” value of the first is lower: 1.019 for the first, 1.123 for the second.

Going from `Nc1nc(-c2cccnc2)c(-c2ccnc3ccccc23)s1` [GW684083X] to `Nc1nc(-c2nccs2)c(-c2ccnc3ccccc23)s1` [GW693542X], the “fold change in fluorescence relative to zaprinast alone” value falls from 0.9409 to 0.8815.

Going from `CCCCc1nn2ncccc2c1-c1ccnc(NC2CC2)n1` [GW684374X] to `Nc1nc(-c2ccccn2)c(-c2ccc3ncccc3n2)s1` [GW693481X], the “fold change in fluorescence relative to zaprinast alone” value rises from 0.8894 to 1.166.

With `c1ccc(-c2[nH]ncc2Nc2ccnc3ccccc23)nc1` [GW694077X] the “fold change in fluorescence relative to zaprinast alone” value was 1.237.

Same assay, conditions: 0.23 h, 10 µM

With `COc1cc(/C=N/Nc2ncnc3c2cnn3C(C)C)ccc1O` [GW644007X] the “% of control remaining” value was 1.177.
